# Like-named read-outs stand apart in the source and are kept apart here.
# Test: Solubility test of metal salts/chelates in glycol and other solvents
# Method: The following mixtures were prepared from anhydrous copper-EDTA and the solvents described below.
# Each time 1,2-propanediol was used as solvent. EDTA is ethylene-diamine tetra-acetic acid; DTPA is diethylenetriaminepentaacetic acid. […]
# [1] = 1 wt % Cu.EDTA in the named solvent, same procedure as examples 1-9
smiles,measurement,setting,value
CC(N)CO (centres unmarked) [2-aminopropanol],clear solution with 1 wt % Cu.EDTA (comparison solvents),,None of these solvents were able to provide a clear solution
"OCCCCO [1,4-butanediol]",clear solution with 1 wt % Cu.EDTA (comparison solvents),[1],None of these solvents were able to provide a clear solution
C[S+](C)[O-] [DMSO],clear solution with 1 wt % Cu.EDTA (comparison solvents),,None of these solvents were able to provide a clear solution
CC(C)O [iso-propylalcohol],clear solution with 1 wt % Cu.EDTA (comparison solvents),,None of these solvents were able to provide a clear solution
CC(C)=O [acetone],clear solution with 1 wt % Cu.EDTA (comparison solvents),[1],None of these solvents were able to provide a clear solution

# Reference: US20210300832A1, “Micronutrient Concentrate and use thereof” (FINE AGROCHEMICALS LIMITED, priority 2018, published 2021)
